Entries after “also recorded” stand apart in the source; their conditions may differ.
Columns and labels:
[1] = tested on: C57BL/6JRj mice; assay: DIO NASH model (Gubra Amylin NASH Diet); format: in vivo; details: 12 weeks, DM or MH 10 mg/kg, Obeticholic Acid 30 mg/kg
Procedure: In vivo effects of the compounds (DM and MH) were examined in a NASH model which is outlined by the timeline in FIG. 8A. 41 weeks before treatment NASH was induced in C57BL/6JRj mice by using the Gubra Amylin NASH Diet. After stratification, randomization and base-line measurements the mice were divided into four groups (16 mice per group). Each group was either dosed with 10 mg/kg of DM or MH, 30 mg/kg Obeticholic Acid or vehicle for 12 weeks respectively. […] After four weeks of treatment (FIG. 8C) and after termination (FIG. 8D) biochemical parameters were determined to examine and compare liver health (plasma alanine aminotransferase and plasma aspartate aminotransferase) and lipid homeostasis (plasma triglycerides and plasma total cholesterol) among treatment groups and healthy mice. Furthermore, livers of all animals were analyzed by histopathology and the use of immuno-histochemistry (FIG. 9 and FIG. 10). […] Inflammatory effects in the treatment groups are shown in FIG. 13a in a similar manner including a post-treatment histopathological analysis of inflammatory markers for the different treatment groups in FIG. 13b to investigate the anti-inflammatory in vivo activity of the compounds.

[2] = tested on: UUO mice; assay: UUO renal fibrosis model, Protocol 2 (interventional treatment); format: in vivo, Male C57Bl/6J mice
Procedure: This study was approved and conducted according to guidelines of the Institutional Animal Care and Use Committee, Medical College of Wisconsin. The Biomedical Resource Center at the Medical College of Wisconsin housed animals with free access to water and food and a 12/12 h light-dark cycle. Male C57B1/6J mice (8-10 weeks old) were purchased from Jackson Laboratories, Bar Harbor, Me. Mice were administered 2.0% isoflurane to induce anesthesia prior to UUO surgery. UUO surgery was conducted with by obstructing the left ureter proximal to the renal pelvis using a 6-o silk tie (Sharma et al., 2016; Kim et al., 2015). Mice with sham surgery went through the same procedure as the UUO mice except that the ureter was not ligated. Two experimental protocols were used to determine renal antifibrotic actions of DM509 and in both protocols the mice were subjected to Sham surgery (n=6/protocol) or Unilateral Ureteral Obstruction (UUO) surgery to induce renal fibrosis. In Protocol 1, mice went through UUO surgery after 24 hours pre-treatment of DM509 (10 mg/kg/d, p.o., n=8) or vehicle (n=8) and blood and kidney tissue were collected at day 10 of the UUO surgery. Mice of the Protocol 2 treated with DM509 (n=8) or vehicle (n=8) after 3 days of UUO surgery and continued for 7 days followed by blood and kidney tissue collection. Kidney samples for histological and immune-histological studies were fixed in 10% buffered formalin and stored at room temperature. Serum and tissue samples for biochemical and gene expression analysis were snap-frozen in liquid nitrogen and stored at […]. Kidney hydroxyproline levels were measured using a commercially available kit (Sigma Aldrich, USA). Blood urea nitrogen (BUN) is measured using a kit from Arbor Assay, USA and monocyte chemoattractant protein-1 (MCP-1) was measured using kit from R&D Systems, Inc., USA. Renal mRNA expression for several fibrotic [fibronectin, α-smooth muscle actin (α-SMA), fibroblast specific protein-1 (FSP-1], tubular injury [NGAL, kidney injury molecule-1 (KIM-1), Claudins1,3,4,5], inflammatory (TNF-α, IL1β, IL-6, ICAM, VCAM) were studied by Real Time-PCR (RT-PCR) analysis. RNeasy Mini Kit (QIAGEN, Calif., USA) was used according to the manufacturer's protocol and messenger RNA (mRNA) was prepared from each sample homogenate. The mRNA samples were quantified spectrophotometrically and 1 μg of total RNA was reverse-transcribed to cDNA using iScript™ Select cDNA Synthesis Kit (Bio-Rad, Hercules, Calif., USA). Gene expression was quantified by iScript One-Step RT-PCR Kit with SYBR green using the MyiQ™ Single Color Real-Time PCR Detection System (Bio-Rad Laboratories, Hercules, Calif., USA). Dissociation curve analysis was accomplished with iQ5 Optical System Software, Version 2.1 (Bio-Rad Laboratories, Hercules, Calif., USA), and each amplified sample analysed for homogeneity. Denaturation was done at 95° C. for 2 min followed by 40 cycles conducted at 95° C. for 10 s and at 60° C. for 30 s. All samples were run in triplicate and fold change in gene expression compared to controls determined by comparative threshold cycle (Ct) method. Target gene expression levels were determined by normalizing Ct values to two housekeeping genes. Statistical analyses were carried out using six samples from each experimental group and comparing to the control group. […] PAS-stained tissue was evaluated for tubular injury whilst PSR was used to determine collagen-positive renal interstitial fibrosis levels. Histopathological changes were scored as published previously and scores presented as a percentage area-fraction relative to the total area analysed. Tubular injury (PAS-cast areas) and interstitial fibrosis (PSR-collagen positive areas) scoring was performed in a blinded fashion by two observers. […]

[3] = biological target: T1, sEH (Homo sapiens, UniProt P34913); assay: sEH inhibition (cellular); format: cell-based
T1 sequence (P34913 1-555): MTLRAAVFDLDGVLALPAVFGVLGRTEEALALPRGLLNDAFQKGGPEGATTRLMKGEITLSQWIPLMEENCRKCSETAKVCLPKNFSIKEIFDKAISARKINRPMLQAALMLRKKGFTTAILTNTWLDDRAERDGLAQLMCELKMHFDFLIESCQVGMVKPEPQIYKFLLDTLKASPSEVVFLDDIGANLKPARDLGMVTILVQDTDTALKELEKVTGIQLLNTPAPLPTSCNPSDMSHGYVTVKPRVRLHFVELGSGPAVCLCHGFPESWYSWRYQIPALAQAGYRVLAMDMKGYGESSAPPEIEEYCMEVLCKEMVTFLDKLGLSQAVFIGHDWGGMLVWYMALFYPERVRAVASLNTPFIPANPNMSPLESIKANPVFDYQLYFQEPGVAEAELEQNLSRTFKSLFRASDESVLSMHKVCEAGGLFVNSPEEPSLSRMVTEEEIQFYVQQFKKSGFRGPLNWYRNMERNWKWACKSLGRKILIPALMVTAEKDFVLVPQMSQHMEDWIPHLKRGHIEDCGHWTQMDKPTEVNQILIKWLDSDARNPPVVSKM

[4] = tested on: UUO mice; assay: UUO renal fibrosis model, Protocol 1 (preventive pre-treatment); format: in vivo, Male C57Bl/6J mice
Procedure: This study was approved and conducted according to guidelines of the Institutional Animal Care and Use Committee, Medical College of Wisconsin. The Biomedical Resource Center at the Medical College of Wisconsin housed animals with free access to water and food and a 12/12 h light-dark cycle. Male C57B1/6J mice (8-10 weeks old) were purchased from Jackson Laboratories, Bar Harbor, Me. Mice were administered 2.0% isoflurane to induce anesthesia prior to UUO surgery. UUO surgery was conducted with by obstructing the left ureter proximal to the renal pelvis using a 6-o silk tie (Sharma et al., 2016; Kim et al., 2015). Mice with sham surgery went through the same procedure as the UUO mice except that the ureter was not ligated. Two experimental protocols were used to determine renal antifibrotic actions of DM509 and in both protocols the mice were subjected to Sham surgery (n=6/protocol) or Unilateral Ureteral Obstruction (UUO) surgery to induce renal fibrosis. In Protocol 1, mice went through UUO surgery after 24 hours pre-treatment of DM509 (10 mg/kg/d, p.o., n=8) or vehicle (n=8) and blood and kidney tissue were collected at day 10 of the UUO surgery. Mice of the Protocol 2 treated with DM509 (n=8) or vehicle (n=8) after 3 days of UUO surgery and continued for 7 days followed by blood and kidney tissue collection. […] Kidney hydroxyproline levels were measured using a commercially available kit (Sigma Aldrich, USA). Blood urea nitrogen (BUN) is measured using a kit from Arbor Assay, USA and monocyte chemoattractant protein-1 (MCP-1) was measured using kit from R&D Systems, Inc., USA. Renal mRNA expression for several fibrotic [fibronectin, α-smooth muscle actin (α-SMA), fibroblast specific protein-1 (FSP-1], tubular injury [NGAL, kidney injury molecule-1 (KIM-1), Claudins1,3,4,5], inflammatory (TNF-α, IL1β, IL-6, ICAM, VCAM) were studied by Real Time-PCR (RT-PCR) analysis. RNeasy Mini Kit (QIAGEN, Calif., USA) was used according to the manufacturer's protocol and messenger RNA (mRNA) was prepared from each sample homogenate. The mRNA samples were quantified spectrophotometrically and 1 μg of total RNA was reverse-transcribed to cDNA using iScript™ Select cDNA Synthesis Kit (Bio-Rad, Hercules, Calif., USA). Gene expression was quantified by iScript One-Step RT-PCR Kit with SYBR green using the MyiQ™ Single Color Real-Time PCR Detection System (Bio-Rad Laboratories, Hercules, Calif., USA). Dissociation curve analysis was accomplished with iQ5 Optical System Software, Version 2.1 (Bio-Rad Laboratories, Hercules, Calif., USA), and each amplified sample analysed for homogeneity. […] All samples were run in triplicate and fold change in gene expression compared to controls determined by comparative threshold cycle (Ct) method. […]

[5] = biological target: T2, FXR (Homo sapiens, UniProt Q96RI1); assay: FXR activation (EC50, efficacy vs GW4064, mode); format: cell-based
T2 sequence (Q96RI1 1-486): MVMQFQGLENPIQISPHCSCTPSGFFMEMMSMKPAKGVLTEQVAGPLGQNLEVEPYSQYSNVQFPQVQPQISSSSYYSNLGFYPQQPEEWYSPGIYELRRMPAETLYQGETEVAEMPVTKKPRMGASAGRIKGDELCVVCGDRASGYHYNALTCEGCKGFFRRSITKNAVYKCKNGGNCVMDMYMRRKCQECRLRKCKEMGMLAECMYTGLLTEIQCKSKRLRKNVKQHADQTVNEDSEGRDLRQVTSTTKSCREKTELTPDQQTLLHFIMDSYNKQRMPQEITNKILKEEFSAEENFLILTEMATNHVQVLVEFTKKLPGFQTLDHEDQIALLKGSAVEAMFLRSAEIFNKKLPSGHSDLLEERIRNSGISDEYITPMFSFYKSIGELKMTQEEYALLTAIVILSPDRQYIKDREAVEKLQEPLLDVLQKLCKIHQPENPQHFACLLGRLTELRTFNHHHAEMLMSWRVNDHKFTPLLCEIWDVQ

[6] = biological target: T1, sEH; assay: sEH inhibition (enzyme); format: biochemical
[7] = biological target: T2, FXR; assay: FXR binding (Kd)
[8] = interventional treatment 10 mg/kg/d, 7 days
[9] = DM509 pre-treatment 10 mg/kg/d p.o., day 10

`CC(C)(C)c1ccc(C(=O)NCc2ccc(NS(C)(=O)=O)cc2Cl)cc1` [DM509] was tested, and the “cumulative daily food intake, difference among treatment groups” value [1] was “neither differences in cummulative daily food intake”, the “renal CD45 positive inflammatory cell infiltration (in words)” value [2] was “reduced infiltration of these cells” and the “renal VE-cadherin mRNA and CD31 positive cells (in words)” value [2] was “markedly mitigated the decrease of VE-cadherin and CD31 positive cells”. For the same compound, the “renal inflammation: renal MCP-1 level and cytokine (TNF-α, IL1β, IL6) expression (in words)” value [2] was “markedly mitigated renal inflammation; also recorded: reduced renal inflammation”, the “renal mRNA expression of claudins (in words)” value [2] was “re-stored the mRNA expressions of claudins 1,3,4 and 5; also recorded: restoring claudin expressions” and the “renal mRNA expression of tubular injury markers KIM-1 and NGAL (in words)” value [2] was “mitigated this marked elevation”. The “renal mRNA expression of vascular inflammatory markers ICAM and VCAM (in words)” value [2] was “mitigated elevated expression”, the “peritubular vascular density assessed by CD31 expression (in words)” value ([2]; interventional treatment) was “mitigated vascular density loss” and the “EMT: mesenchymal (FSP-1, fibronectin, α-SMA) and epithelial (E-cadherin) marker expressions in kidney (in words)” value ([2]; interventional treatment 10 mg/kg/d) was “markedly attenuated EMT; also recorded: markedly reduced EMT”. The “reduction of BUN” value ([2]; interventional treatment 10 mg/kg/d in drinking water, 7 days) was 40%, the “reduction of collagen positive area” value [2, 8] was 65% and the “reduction of kidney hydroxyproline content” value [2, 8] was 41%. For the same compound, the “reduction of renal ICAM and VCAM gene expression” value [2, 8] was 40-50%, the “reduction of tubular injury markers (KIM-1, NGAL)” value [2, 8] was 25-50% and the “renal fibrosis: collagen positive area and renal hydroxyproline content (in words)” value ([2]; treatment from day 3 after UUO for 7 days) was “markedly mitigated renal fibrosis”. For the same compound, the IC50 [3] was 1 nM, the “lower collagen positive area than vehicle” value [4, 9] was 54% and the “lower renal mRNA expression of fibrotic markers (α-SMA, fibronectin) than vehicle” value [4, 9] was 40-60%. The “lower renal mRNA expression of inflammatory markers” value [4, 9] was 50-80%, the “kidney fibrosis (in words)” value ([4]; preventive treatment 10 mg/kg/d) was “decreased UUO kidney fibrosis” and the EC50 [5] was 20 nM. The FXR efficacy [5] was 35 % of GW4064, the “FXR mode of action” value [5] was “partial agonist” and the IC50 [6] was 4 nM.
With `CC(C)(C)c1ccc(C(=O)NCc2ccc(NS(C)(=O)=O)cc2Cl)s1` [MH] the “cumulative daily food intake, difference among treatment groups” value [1] was “neither differences in cummulative daily food intake”, the Kd [7] was 1400 nM and the IC50 [3] was < 1 nM. For the same compound, the “FXR mode of action” value [5] was “selective modulator” and the IC50 [6] was < 1 nM.
In the case of `CC[C@H]1[C@@H](O)[C@@H]2[C@H](CC[C@]3(C)[C@@H]([C@H](C)CCC(=O)O)CC[C@@H]23)[C@@]2(C)CC[C@@H](O)C[C@@H]12` [Obeticholic Acid, reference compound], the “cumulative daily food intake, difference among treatment groups” value [1] is reported as “neither differences in cummulative daily food intake”.
